Molecules are shown by their SMILES. pIC50: −log10 of the molar value. Bounds are passed on as bounds.

One data set deals with HIV-1 protease (Human immunodeficiency virus type 1 group M subtype B, UniProt P04585). Kind of data set: biochemical. As to conditions: Activity of Compounds as Enzyme Inhibitor. Format: biochemical. On the procedure:
IC50 values for enzyme inhibition are determined using HIV-1 and Amersham's HIV proteinase [^125 I]-scintillation proximity assay (SPA).
Amersham's HIV proteinase [^125 I]-SPA system is a commercial assay incorporating the scintillation proximity assay (SPA) principle available from Amersham International PLC, Bucks, England.
The SPA microspheres provided by Amersham have the substrate linked directly to the surface through a streptavidin-biotin link. The substrate is a 12 residue peptide designed specifically for this application utilizing current knowledge of known cleavage sites for the enzyme and analogue substrate studies. The sequence of the substrate is: [drawing 22]
The peptide is monoiodinated on the tyrosine residue and biotinylated through the epsilon-NH2 group on the lysine. It is linked to the SPA bead via a streptavidin-link. The beads are suspended in a buffer consisting of 5 mM DTT, 1 mM EDTA, 10% w/v glycerol, 0.05% W/v sodium azide, 0.01% v/v Triton X-100 in 25 mM sodium citrate buffer pH 5.5.
The enzyme cleaves at the Phe-Phe bond releasing the ^125 I fragment from the bead. This event causes the removal of detectable signal from the microsphere. […] The rate of reduction in signal is proportional to the activity of the enzyme. The obtained data is used to calculate the IC50 values found in Table 1.

For data set [1], the system named is HIV-1 strain IIIB in T lymphoid MT-2 cell lines. Kind of data set: inhibition of growth of HIV-1 strain IIIB in T lymphoid MT-2 cell lines (metabolic MTT dye). Format: cell-based. As for the experimental part: In Table 2, data is shown for the ability of these compounds to inhibit growth of HIV-1 strain IIIB in T lymphoid MT-2 cell lines. The cell line is challenged by free virons selected to result in 90-95% cell death (CPE) by day 5. The protease inhibitor compound is then added in the stated concentration. After 5 days, the surviving cells are measured using metabolic MTT dye.

A short description of data set [2]: mouse plasma level after IP or oral administration. Format: in vivo. As to conditions: mice; for time for which plasma concentrations of >0.13 microgram/ml are achieved: aqueous liposomal formulation.

Regarding `CC[C@H](C)[C@H](NC(=O)[C@H](Cc1ccccc1)CC(O)CN1C[C@H]2CCCC[C@H]2C[C@H]1C(=O)NC(C)(C)C)C(=O)NCc1nc2ccccc2[nH]1` (single isomer, unassigned) [Example 24B, [3S-[2[alphaS*(1R*,2R*),gammaS*(or R*)],3alpha,4abeta,8abeta]]-N-[1-[[(1H-Benzimidazol-2-ylmethyl)amino]carbonyl]-2-methylbutyl]-3-[[(1,1-dimethylethyl)amino]carbonyl]decahydro-gamma-hydroxy-alpha-(phenylmethyl)-2-isoquinolinepentanamide], the pIC50 against HIV-1 protease was 7.14. Further, in data set [1] (0.010 μg/ml, 5 days), the “% Inhibition at concentration 0.010 μg/ml” value is reported as 16.2%. In addition, the “% Inhibition at concentration 0.039 μg/ml” value in data set [1] (0.039 μg/ml, 5 days) amounted to 81.4%. Besides, the “% Inhibition at concentration 0.156 μg/ml” value in data set [1] (0.156 μg/ml, 5 days) is 93.0%. Also, the “% Inhibition at concentration 0.625 μg/ml” value in data set [1] (0.625 μg/ml, 5 days) came to 94.7%. For the same compound, in data set [1] (2.5 μg/ml, 5 days), the “% Inhibition at concentration 2.5 μg/ml” value was 94.9%. Besides, the “inhibition of HIV-1 strain IIIB viral growth in MT-2 cell lines” value in data set [1] (concentration >0.13 microgram/ml) is more than 90%. Moreover, the “time for which plasma concentrations of >0.13 microgram/ml are achieved” value in data set [2] (IP 8.3 mg/kg) stood at 2.8 h; in data set [2] (IP 16.6 mg/kg), 4.2 h. Also, the “time for which plasma concentrations >0.13 microgram/ml are maintained” value in data set [2] (oral 16.6 mg/kg (FIG. 1)) turned out to be 2 h.

The record behind these values is patent publication US5430150A, “Retroviral protease inhibitors” (American Cyanamid Company, priority 1992, dated 1995).
